How the values were obtained:
F343C mutant Pgp [1] = target: T1, F343C mutant Pgp (Homo sapiens, UniProt P08183, C1074A/C1125A/C1227A/C137A/C431A/C717A/C956A/F343C); assay: Transport of fluorescent substrates in BacMam-transduced HeLa cells (flow cytometry); conditions: compared to cysless WT Pgp (taken as 100%), calcein-AM 0.5 µM 10 min, Rh123 […], other substrates 0.5 µM 45 min
Experimental: (§1) The BacMam-Pgp virus (encoding cysless WT and the mutant Pgps) was added to 2.5 million HeLa cells at a titer of 50-60 viral particles per cell in 3 ml of DMEM and incubated at 37°C [30]. After 1 hr DMEM was added to make a total of 20 ml in the flask and these infected cells were further incubated for 3-4 hrs. 10 mM butyric acid was then added and the cells continued to incubate at 37°C. After 24 hrs, the cells were trypsinized, washed, counted and analyzed by flow cytometry for cell surface expression and the function of the wildtype and mutant Pgps.
(§2) The transport function of cysless WT and mutant Pgps was determined using fluorescent compounds with flow cytometry as previously described. […] Cells were washed with cold PBS and resuspended in PBS containing 0.1% BSA before analysis.

Q725C/V982C mutant Pgp [2] = target: T2, Q725C/V982C mutant Pgp (Homo sapiens, UniProt P08183, C1074A/C1125A/C1227A/C137A/C431A/C717A/C956A/Q725C/V982C); assay: as above; conditions: compared to cysless WT Pgp (taken as 100%), calcein-AM 0.5 µM 10 min, Rh123 […], other substrates 0.5 µM 45 min
Experimental: as §1, §2

F978C mutant Pgp = F978C mutant Pgp (Homo sapiens, UniProt P08183, C1074A/C1125A/C1227A/C137A/C431A/C717A/C956A/F978C); assay: as above; conditions: compared to cysless WT Pgp (taken as 100%), calcein-AM 0.5 µM 10 min, Rh123 […], other substrates 0.5 µM 45 min
Experimental: as §1, §2

Y307C mutant Pgp [3] = target: T3, Y307C mutant Pgp (Homo sapiens, UniProt P08183, C1074A/C1125A/C1227A/C137A/C431A/C717A/C956A/Y307C); assay: as above; conditions: compared to cysless WT Pgp (taken as 100%), calcein-AM 0.5 µM 10 min, Rh123 […], other substrates 0.5 µM 45 min
Experimental: as §1, §2

F728C mutant Pgp [4] = target: T4, F728C mutant Pgp (Homo sapiens, UniProt P08183, C1074A/C1125A/C1227A/C137A/C431A/C717A/C956A/F728C); assay: as above; conditions: compared to cysless WT Pgp (taken as 100%), calcein-AM 0.5 µM 10 min, Rh123 […], other substrates 0.5 µM 45 min
Experimental: as §1, §2

Q725C mutant Pgp [5] = target: T5, Q725C mutant Pgp (Homo sapiens, UniProt P08183, C1074A/C1125A/C1227A/C137A/C431A/C717A/C956A/Q725C); assay: as above; conditions: compared to cysless WT Pgp (taken as 100%), calcein-AM 0.5 µM 10 min, Rh123 […], other substrates 0.5 µM 45 min
Experimental: as §1, §2

V982C mutant Pgp [6] = target: T6, V982C mutant Pgp (Homo sapiens, UniProt P08183, C1074A/C1125A/C1227A/C137A/C431A/C717A/C956A/V982C); assay: as above; conditions: compared to cysless WT Pgp (taken as 100%), calcein-AM 0.5 µM 10 min, Rh123 […], other substrates 0.5 µM 45 min
Experimental: as §1, §2

F343C/V982C mutant Pgp [7] = target: T7, F343C/V982C mutant Pgp (Homo sapiens, UniProt P08183, C1074A/C1125A/C1227A/C137A/C431A/C717A/C956A/F343C/V982C); assay: as above; conditions: compared to cysless WT Pgp (taken as 100%), calcein-AM 0.5 µM 10 min, Rh123 […], other substrates 0.5 µM 45 min
Experimental: as §1, §2

cysless WT Pgp [8] = target: T8, cysless WT Pgp (Homo sapiens, UniProt P08183, C1074A/C1125A/C1227A/C137A/C431A/C717A/C956A); assay: Inhibition of IAAP photo-labeling of Pgp in crude membranes
Experimental: (§3) Then, samples were photocrosslinked with IAAP at 4°C as described in the Materials and Methods section. Mean values from at least three independent experiments are plotted and error bars depict SD.
(§4) High-Five insect cells (Invitrogen, Carlsbad, CA) were infected with recombinant baculovirus carrying the human MDR1 cDNA cysless WT and various mutant Pgps, with a His6-tag at the C-terminus as described previously. Crude membranes were prepared as described previously
(§5) The crude membranes of High-Five insect cells containing 60-80 µg protein per 100 µL in 50 mM MES-Tris buffer (pH 6.8), were incubated for 10 minutes at 37°C in the absence (control) and presence of compound(s) at indicated concentration.

[9] = target: T9, Y307C/Q725C/V982C mutant Pgp (Homo sapiens, UniProt P08183, C1074A/C1125A/C1227A/C137A/C431A/C717A/C956A/Q725C/V982C/Y307C); assay: as above
Experimental: as §3, §4, §5

cysless WT Pgp [10] = target: T8, cysless WT Pgp; assay: Vanadate-sensitive ATP hydrolysis of Pgp in crude membranes; conditions: Verapamil 50 µM, QZ59-SSS 1 µM, Valinomycin 10 µM, FSBA 1 mM
Experimental: (§6) Vanadate-sensitive Pgp-mediated ATP hydrolysis was measured as described in Materials and Methods. […] At least two independent experiments were carried out for each mutant with indicated compounds. Additional information including standard deviations, fold-stimulation or % inhibition, and number of experiments is given in the section (Tables S2 and S3).
as §4
(§7) Crude membranes (10-25 µg protein/100 µ L) from High Five insect cells expressing cysless WT or mutant Pgp were incubated in the presence and absence of sodium orthovanadate (0.3 mM), in a buffer containing 50 mM MES-Tris pH 6.8, 50 mM KCl, 5 mM NaN3, 1 mM EGTA, 1 mM ouabain, 2 mM DTT, and 10 mM MgCl2. […] The reaction was initiated by addition of 5 mM ATP and continued for 20 min at 37°C. […] The reaction was stopped by addition of 100 µ L of 5% SDS and the amount of inorganic phosphate generated was quantified with a colorimetric reaction, as previously described.

F343C mutant Pgp [11] = target: T1, F343C mutant Pgp; assay: as above; conditions: Verapamil 50 µM, QZ59-SSS 1 µM, FSBA 1 mM
Experimental: as §6, §4, §7

Q725C/V982C mutant Pgp [12] = target: T2, Q725C/V982C mutant Pgp; assay: as above; conditions: Verapamil 50 µM, QZ59-SSS 1 µM, Valinomycin 10 µM, FSBA 1 mM
Experimental: as §6, §4, §7

[13] = target: T9, Y307C/Q725C/V982C mutant Pgp; assay: as above; conditions: Verapamil 50 µM, QZ59-SSS 1 µM, Valinomycin 10 µM, FSBA 1 mM
Experimental: as §6, §4, §7

Y307C mutant Pgp [14] = target: T3, Y307C mutant Pgp; assay: as above; conditions: Verapamil 50 µM, QZ59-SSS 1 µM, Valinomycin 10 µM, FSBA 1 mM
Experimental: as §6, §4, §7

F728C mutant Pgp [15] = target: T4, F728C mutant Pgp; assay: as above; conditions: Verapamil 50 µM, QZ59-SSS 1 µM, Valinomycin 10 µM, FSBA 1 mM
Experimental: as §6, §4, §7

Q725C mutant Pgp [16] = target: T5, Q725C mutant Pgp; assay: as above; conditions: Verapamil 50 µM, QZ59-SSS 1 µM, Valinomycin 10 µM, FSBA 1 mM
Experimental: as §6, §4, §7

V982C mutant Pgp [17] = target: T6, V982C mutant Pgp; assay: as above; conditions: Verapamil 50 µM, QZ59-SSS 1 µM, Valinomycin 10 µM, FSBA 1 mM
Experimental: as §6, §4, §7

F728C/V982C mutant Pgp = F728C/V982C mutant Pgp (Homo sapiens, UniProt P08183, C1074A/C1125A/C1227A/C137A/C431A/C717A/C956A/F728C/V982C); assay: as above; conditions: Verapamil 50 µM, QZ59-SSS 1 µM, Valinomycin 10 µM, FSBA 1 mM
Experimental: as §6, §4, §7

F343C/V982C mutant Pgp [18] = target: T7, F343C/V982C mutant Pgp; assay: as above; conditions: Verapamil 50 µM, QZ59-SSS 1 µM, Valinomycin 10 µM, FSBA 1 mM
Experimental: as §6, §4, §7

Y307C/V982C mutant Pgp = Y307C/V982C mutant Pgp (Homo sapiens, UniProt P08183, C1074A/C1125A/C1227A/C137A/C431A/C717A/C956A/V982C/Y307C); assay: as above; conditions: Verapamil 50 µM, QZ59-SSS 1 µM, Valinomycin 10 µM, FSBA 1 mM
Experimental: as §6, §4, §7

all mutant Pgps = assay: as above; type: biochemical, human
Experimental: Crude membranes were prepared as described previously

T5 sequence (P08183 whole entry C137A/C431A/C717A/Q725C/C956A/C1074A/C1125A/C1227A): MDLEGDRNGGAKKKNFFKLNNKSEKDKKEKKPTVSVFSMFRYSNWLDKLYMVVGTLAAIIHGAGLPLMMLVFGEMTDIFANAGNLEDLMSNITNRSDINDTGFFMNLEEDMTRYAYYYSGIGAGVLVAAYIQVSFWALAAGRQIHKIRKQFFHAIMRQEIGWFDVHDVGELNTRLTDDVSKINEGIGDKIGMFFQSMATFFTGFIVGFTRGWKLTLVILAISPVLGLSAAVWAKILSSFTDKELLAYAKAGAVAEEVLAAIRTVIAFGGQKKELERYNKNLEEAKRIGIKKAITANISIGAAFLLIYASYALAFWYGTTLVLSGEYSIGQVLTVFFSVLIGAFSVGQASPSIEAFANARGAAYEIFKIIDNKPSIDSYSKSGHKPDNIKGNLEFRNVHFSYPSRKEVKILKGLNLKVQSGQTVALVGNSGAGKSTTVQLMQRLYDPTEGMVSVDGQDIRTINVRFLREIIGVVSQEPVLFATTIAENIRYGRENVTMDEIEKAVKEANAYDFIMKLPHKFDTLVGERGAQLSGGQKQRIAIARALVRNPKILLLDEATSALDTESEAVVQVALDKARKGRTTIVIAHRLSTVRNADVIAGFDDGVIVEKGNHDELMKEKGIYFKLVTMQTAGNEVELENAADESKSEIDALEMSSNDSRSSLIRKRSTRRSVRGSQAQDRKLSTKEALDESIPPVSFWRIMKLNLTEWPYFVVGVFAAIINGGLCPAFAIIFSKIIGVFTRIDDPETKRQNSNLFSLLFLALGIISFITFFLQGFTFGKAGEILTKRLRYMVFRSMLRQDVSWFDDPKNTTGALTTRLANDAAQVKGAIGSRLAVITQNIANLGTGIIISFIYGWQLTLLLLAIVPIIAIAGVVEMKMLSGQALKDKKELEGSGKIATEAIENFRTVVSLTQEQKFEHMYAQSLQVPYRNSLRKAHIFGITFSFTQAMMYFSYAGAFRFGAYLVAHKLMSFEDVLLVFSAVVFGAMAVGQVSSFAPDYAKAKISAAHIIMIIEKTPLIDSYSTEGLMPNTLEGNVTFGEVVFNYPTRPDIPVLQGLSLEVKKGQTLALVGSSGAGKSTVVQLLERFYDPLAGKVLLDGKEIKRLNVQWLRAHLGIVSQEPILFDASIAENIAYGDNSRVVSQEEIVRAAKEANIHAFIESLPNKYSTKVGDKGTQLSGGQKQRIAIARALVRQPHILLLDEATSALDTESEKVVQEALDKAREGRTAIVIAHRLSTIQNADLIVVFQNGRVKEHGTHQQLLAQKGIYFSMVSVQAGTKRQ
T8 sequence (P08183 whole entry C137A/C431A/C717A/C956A/C1074A/C1125A/C1227A): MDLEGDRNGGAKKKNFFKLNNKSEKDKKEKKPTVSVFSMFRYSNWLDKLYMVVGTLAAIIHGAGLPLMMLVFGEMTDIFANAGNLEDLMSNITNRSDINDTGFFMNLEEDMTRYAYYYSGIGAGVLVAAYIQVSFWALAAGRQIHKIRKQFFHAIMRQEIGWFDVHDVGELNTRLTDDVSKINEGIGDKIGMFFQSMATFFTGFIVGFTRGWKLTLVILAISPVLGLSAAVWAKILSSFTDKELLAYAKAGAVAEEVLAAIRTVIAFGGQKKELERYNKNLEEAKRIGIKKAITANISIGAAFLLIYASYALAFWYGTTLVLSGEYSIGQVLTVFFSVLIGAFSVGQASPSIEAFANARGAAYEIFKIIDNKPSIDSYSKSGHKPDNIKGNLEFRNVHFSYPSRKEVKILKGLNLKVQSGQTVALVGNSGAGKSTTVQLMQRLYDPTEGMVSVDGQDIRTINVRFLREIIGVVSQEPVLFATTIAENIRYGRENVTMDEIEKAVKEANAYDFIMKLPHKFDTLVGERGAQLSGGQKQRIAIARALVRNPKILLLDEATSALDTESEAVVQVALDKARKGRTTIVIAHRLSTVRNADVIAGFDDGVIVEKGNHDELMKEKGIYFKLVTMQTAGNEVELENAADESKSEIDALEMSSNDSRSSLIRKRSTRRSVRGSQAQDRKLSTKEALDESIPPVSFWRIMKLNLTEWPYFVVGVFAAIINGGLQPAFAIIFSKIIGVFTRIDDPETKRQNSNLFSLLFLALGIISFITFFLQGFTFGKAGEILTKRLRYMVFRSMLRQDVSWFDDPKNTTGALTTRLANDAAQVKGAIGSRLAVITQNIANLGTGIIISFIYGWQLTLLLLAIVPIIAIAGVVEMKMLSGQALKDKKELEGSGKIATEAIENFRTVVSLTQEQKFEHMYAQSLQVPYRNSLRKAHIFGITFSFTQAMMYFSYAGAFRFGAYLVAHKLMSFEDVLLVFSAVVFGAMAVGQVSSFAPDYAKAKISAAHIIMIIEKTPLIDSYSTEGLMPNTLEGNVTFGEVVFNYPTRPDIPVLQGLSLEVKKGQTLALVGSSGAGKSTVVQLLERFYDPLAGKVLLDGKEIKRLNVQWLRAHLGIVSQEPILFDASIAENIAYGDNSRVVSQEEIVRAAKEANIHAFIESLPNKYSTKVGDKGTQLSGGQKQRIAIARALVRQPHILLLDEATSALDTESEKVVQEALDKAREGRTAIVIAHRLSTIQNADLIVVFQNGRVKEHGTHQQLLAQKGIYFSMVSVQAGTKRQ
T1 sequence (P08183 whole entry C137A/F343C/C431A/C717A/C956A/C1074A/C1125A/C1227A): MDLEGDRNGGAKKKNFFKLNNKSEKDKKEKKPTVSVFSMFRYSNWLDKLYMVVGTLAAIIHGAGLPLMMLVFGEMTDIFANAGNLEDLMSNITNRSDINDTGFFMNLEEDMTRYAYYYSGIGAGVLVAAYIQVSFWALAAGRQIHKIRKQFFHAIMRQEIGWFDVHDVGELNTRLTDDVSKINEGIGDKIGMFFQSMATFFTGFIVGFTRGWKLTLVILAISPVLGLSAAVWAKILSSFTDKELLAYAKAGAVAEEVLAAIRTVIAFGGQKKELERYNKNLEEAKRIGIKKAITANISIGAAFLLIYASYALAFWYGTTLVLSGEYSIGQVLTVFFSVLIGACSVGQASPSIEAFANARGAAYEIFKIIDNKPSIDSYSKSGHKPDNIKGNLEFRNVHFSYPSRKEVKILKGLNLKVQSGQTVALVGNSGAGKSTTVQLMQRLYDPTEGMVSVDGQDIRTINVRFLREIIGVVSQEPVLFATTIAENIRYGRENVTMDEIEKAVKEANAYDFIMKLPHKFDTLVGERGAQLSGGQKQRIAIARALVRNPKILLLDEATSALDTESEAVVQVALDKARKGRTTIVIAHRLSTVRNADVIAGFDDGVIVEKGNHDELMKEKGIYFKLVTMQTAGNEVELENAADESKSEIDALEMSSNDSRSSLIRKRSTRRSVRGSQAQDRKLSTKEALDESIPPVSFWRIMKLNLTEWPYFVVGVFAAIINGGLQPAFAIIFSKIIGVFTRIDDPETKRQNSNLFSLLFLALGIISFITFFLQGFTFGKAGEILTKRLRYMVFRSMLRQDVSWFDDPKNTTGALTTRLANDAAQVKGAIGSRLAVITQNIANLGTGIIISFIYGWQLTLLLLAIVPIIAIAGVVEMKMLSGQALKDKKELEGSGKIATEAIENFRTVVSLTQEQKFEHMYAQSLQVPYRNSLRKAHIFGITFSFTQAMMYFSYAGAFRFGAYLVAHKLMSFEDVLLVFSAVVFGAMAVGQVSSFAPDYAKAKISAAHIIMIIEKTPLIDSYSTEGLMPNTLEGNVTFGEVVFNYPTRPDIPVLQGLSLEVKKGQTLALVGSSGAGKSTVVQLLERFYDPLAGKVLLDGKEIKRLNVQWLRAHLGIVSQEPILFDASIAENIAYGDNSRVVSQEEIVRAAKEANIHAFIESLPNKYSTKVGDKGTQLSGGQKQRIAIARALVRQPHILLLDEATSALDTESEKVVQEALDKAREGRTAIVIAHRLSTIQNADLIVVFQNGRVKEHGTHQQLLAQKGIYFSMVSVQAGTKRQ
T3 sequence (P08183 whole entry C137A/Y307C/C431A/C717A/C956A/C1074A/C1125A/C1227A): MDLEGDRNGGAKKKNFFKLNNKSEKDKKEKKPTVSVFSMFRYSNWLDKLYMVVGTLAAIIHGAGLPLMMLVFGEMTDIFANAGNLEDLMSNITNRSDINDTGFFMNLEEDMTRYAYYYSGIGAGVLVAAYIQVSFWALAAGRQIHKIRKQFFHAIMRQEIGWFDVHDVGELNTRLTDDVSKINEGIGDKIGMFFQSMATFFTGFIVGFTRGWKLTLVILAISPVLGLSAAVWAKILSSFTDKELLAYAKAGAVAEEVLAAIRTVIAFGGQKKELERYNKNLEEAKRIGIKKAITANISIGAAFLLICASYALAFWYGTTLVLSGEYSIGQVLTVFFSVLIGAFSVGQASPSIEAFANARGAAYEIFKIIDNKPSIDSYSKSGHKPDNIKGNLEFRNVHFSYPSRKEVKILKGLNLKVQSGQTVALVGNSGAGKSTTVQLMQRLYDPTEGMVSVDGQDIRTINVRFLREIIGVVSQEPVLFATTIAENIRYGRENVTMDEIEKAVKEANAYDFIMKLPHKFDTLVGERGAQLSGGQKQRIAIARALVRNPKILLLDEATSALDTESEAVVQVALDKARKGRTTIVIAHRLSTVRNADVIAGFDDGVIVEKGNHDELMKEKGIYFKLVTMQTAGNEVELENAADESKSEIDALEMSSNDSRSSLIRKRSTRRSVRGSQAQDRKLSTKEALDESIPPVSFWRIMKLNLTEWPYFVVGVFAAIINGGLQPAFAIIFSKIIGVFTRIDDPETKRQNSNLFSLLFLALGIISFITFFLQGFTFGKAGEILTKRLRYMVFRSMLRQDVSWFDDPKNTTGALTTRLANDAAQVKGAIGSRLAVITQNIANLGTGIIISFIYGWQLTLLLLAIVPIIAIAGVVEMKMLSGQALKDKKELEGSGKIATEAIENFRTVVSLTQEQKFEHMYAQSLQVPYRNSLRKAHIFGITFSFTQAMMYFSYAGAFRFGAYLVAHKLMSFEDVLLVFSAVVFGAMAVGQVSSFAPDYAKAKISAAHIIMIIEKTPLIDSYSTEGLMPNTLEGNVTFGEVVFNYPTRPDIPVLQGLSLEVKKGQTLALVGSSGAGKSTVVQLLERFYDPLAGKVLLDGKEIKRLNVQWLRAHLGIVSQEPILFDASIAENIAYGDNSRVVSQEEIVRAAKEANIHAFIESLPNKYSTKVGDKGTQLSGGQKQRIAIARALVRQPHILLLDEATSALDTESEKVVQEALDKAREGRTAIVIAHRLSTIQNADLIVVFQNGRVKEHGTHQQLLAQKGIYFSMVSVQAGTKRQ

## COc1cccc2c1C(=O)c1c(O)c3c(c(O)c1C2=O)C[C@@](O)(C(C)=O)C[C@@H]3O[C@H]1C[C@H](N)[C@H](O)[C@H](C)O1 [Dauno, daunorubicin]
F343C mutant Pgp [1]
  Transport function: 90-100%
Q725C/V982C mutant Pgp [2]
  Transport function: 90-100%
F978C mutant Pgp
  Transport function: 90-100%
Y307C mutant Pgp [3]
  Transport function: 90-100%
F728C mutant Pgp [4]
  Transport function: 90-100%
Q725C mutant Pgp [5]
  Transport function: 90-100%
V982C mutant Pgp [6]
  Transport function: 90-100%
F343C/V982C mutant Pgp [7]
  Transport function: 90-100%

## Nc1ncnc2c1ncn2[C@@H]1O[C@H](COC(=O)c2ccc(S(=O)(=O)F)cc2)[C@@H](O)[C@H]1O [FSBA, 5′-fluorosulfonylbenzoyl 5′-adenosine]
Cysless WT Pgp [8]; Cysless WT, High-Five crude membranes
  Max Inhibition (%) of IAAP-labeling: 85%
Cysless WT Pgp [8]; read-out: IC50 (µM), inhibition of IAAP-labeling, Cysless WT, High-Five crude membranes
  IC50: 390 µM
[9]; Y307C/Q725C/V982C, at higher concentrations
  Inhibition of IAAP photo-labeling: < 30%
Cysless WT Pgp [10]
  ATP hydrolysis, Average: 52 nmoles Pi/min/mg protein
Cysless WT Pgp [10]; relative to basal
  ATP hydrolysis, Fold-stimulation: 2.4
F343C mutant Pgp [11]
  ATP hydrolysis, Average: 39 nmoles Pi/min/mg protein
F343C mutant Pgp [11]; relative to basal
  ATP hydrolysis, Fold-stimulation: 2.1
Q725C/V982C mutant Pgp [12]
  ATP hydrolysis, Average: 12 nmoles Pi/min/mg protein
Q725C/V982C mutant Pgp [12]; relative to basal
  ATP hydrolysis, Fold-stimulation: 2.3
[13]
  ATP hydrolysis, Average: 6 nmoles Pi/min/mg protein
Y307C mutant Pgp [14]
  ATP hydrolysis, Average: 14 nmoles Pi/min/mg protein
Y307C mutant Pgp [14]; relative to basal
  ATP hydrolysis, Fold-stimulation: 1.9
F728C mutant Pgp [15]
  ATP hydrolysis, Average: 11 nmoles Pi/min/mg protein
F728C mutant Pgp [15]; relative to basal
  ATP hydrolysis, Fold-stimulation: 1.8
Q725C mutant Pgp [16]
  ATP hydrolysis, Average: 10 nmoles Pi/min/mg protein
Q725C mutant Pgp [16]; relative to basal
  ATP hydrolysis, Fold-stimulation: 2.0
V982C mutant Pgp [17]
  ATP hydrolysis, Average: 28 nmoles Pi/min/mg protein
V982C mutant Pgp [17]; relative to basal
  ATP hydrolysis, Fold-stimulation: 2.4
F728C/V982C mutant Pgp
  ATP hydrolysis, Average: 5 nmoles Pi/min/mg protein
F728C/V982C mutant Pgp; relative to basal
  ATP hydrolysis, Fold-stimulation: 1.1
F343C/V982C mutant Pgp [18]
  ATP hydrolysis, Average: 50 nmoles Pi/min/mg protein
F343C/V982C mutant Pgp [18]; relative to basal
  ATP hydrolysis, Fold-stimulation: 2.7
Y307C/V982C mutant Pgp
  ATP hydrolysis, Average: 20 nmoles Pi/min/mg protein
Y307C/V982C mutant Pgp; relative to basal
  ATP hydrolysis, Fold-stimulation: 2.1

## CC(C)[C@@H]1NC(=O)c2csc(n2)[C@H](C(C)C)NC(=O)c2csc(n2)[C@H](C(C)C)NC(=O)c2csc1n2 [QZ59-SSS]
All mutant Pgps; all mutant Pgps, inhibition measured in presence of verapamil 5 µM
  Modulation of ATP hydrolysis: stimulates ATP hydrolysis of the mutant Pgps with no exceptions
Cysless WT Pgp [8]
  IC50: 6 µM
  Max Inhibition (%) of IAAP-labeling: 72%
[9]
  Inhibition of IAAP photo-labeling: < 30%

## COC(=O)c1ccccc1-c1c2ccc(=N)cc-2oc2cc(N)ccc12 [Rh123, rhodamine123]
F343C mutant Pgp [1]
  Transport function: 90-100%
Q725C/V982C mutant Pgp [2]
  Transport function: 90-100%
F978C mutant Pgp
  Transport function: 90-100%
Y307C mutant Pgp [3]
  Transport function: 90-100%
F728C mutant Pgp [4]
  Transport function: 90-100%
Q725C mutant Pgp [5]
  Transport function: 90-100%
V982C mutant Pgp [6]
  Transport function: 90-100%
F343C/V982C mutant Pgp [7]
  Transport function: 90-100%

## COc1ccc(CCN(C)CCCC(C#N)(c2ccc(OC)c(OC)c2)C(C)C)cc1OC (stereo not drawn) [Verapamil, verapamil]
All mutant Pgps; all the mutants, Verapamil 50 µM
  Stimulation of ATP hydrolysis: 2-4 fold
